Assay results from US9695155B2, “Herbicidal substituted pyrimidinyloxy benzene compounds” (E. I. DU PONT DE NEMOURS AND COMPANY, priority 2013, dated 2017).

How the values were obtained:
large (Lg) crabgrass [1] = assay: Test A preemergence; assay type: in vivo, Digitaria sanguinalis; conditions: for Crabgrass, Large plant response rating: 500 g ai/ha
Summary of the method: (§1)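 Greenhouse pot test, loam/sand soil. Formulation: non-phytotoxic solvent mix plus surfactant. Pre: directed spray onto soil after sowing. Post: plants at 1–2 leaf, 2–10 cm. Rated visually vs untreated controls at ~10 d, 0 (no effect) to 100 (complete control).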

pigweed [2] = assay: Test A preemergence; assay type: in vivo, Amaranthus retroflexus; conditions: for Pigweed plant response rating: 500 g ai/ha
Summary of the method: as §1

large (Lg) crabgrass [3] = assay: Test A postemergence; assay type: in vivo, Digitaria sanguinalis; conditions: 0 to 100 scale where 0 is no effect and 100 is complete control
Summary of the method: as §1

giant foxtail [4] = assay: Test A postemergence; assay type: in vivo, Setaria faberii; conditions: 0 to 100 scale where 0 is no effect and 100 is complete control
Summary of the method: as §1

pigweed [5] = assay: Test A postemergence; assay type: in vivo, Amaranthus retroflexus; conditions: 0 to 100 scale where 0 is no effect and 100 is complete control; for Pigweed plant response rating: 125 g ai/ha; for Plant response rating, Pigweed: 500 g ai/ha
Summary of the method: as §1

blackgrass = assay: Test C preemergence; assay type: in vivo, Alopecurus myosuroides; conditions: for Blackgrass plant response rating: preemergence; for Plant response rating, Blackgrass: Preemergence, scale 0 to 100, 0 no effect, 100 complete control
Summary of the method: (§2)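 Sown in loam/sand → sprayed pre-emergence; or grown to 1–4 leaves in peat mix → sprayed post-emergence. Same solvent/surfactant formulation both ways. Greenhouse 13–15 d. Score 0–100 visual.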

giant foxtail [6] = assay: Test C preemergence; assay type: in vivo, Setaria faberii; conditions: for Foxtail, Giant plant response rating: preemergence; for Plant response rating, Foxtail, Giant: Preemergence, scale 0 to 100, 0 no effect, 100 complete control
Summary of the method: as §2

johnsongrass [7] = assay: Test C preemergence; assay type: in vivo, Sorghum halepense; conditions: for Johnsongrass plant response rating: preemergence; for Plant response rating, Johnsongrass: Preemergence, scale 0 to 100, 0 no effect, 100 complete control
Summary of the method: as §2

ragweed = assay: Test C preemergence; assay type: in vivo, Ambrosia elatior; conditions: for Ragweed plant response rating: preemergence; for Plant response rating, Ragweed: Preemergence, scale 0 to 100, 0 no effect, 100 complete control
Summary of the method: as §2

corn = assay: Test C postemergence; assay type: in vivo, Zea mays; conditions: for Corn plant response rating / Plant response rating, Corn: scale 0 to 100 (0 no effect, 100 complete control)
Summary of the method: as §2

large (Lg) crabgrass [8] = assay: Test C postemergence; assay type: in vivo, Digitaria sanguinalis; conditions: for Crabgrass, Large plant response rating / Plant response rating, Crabgrass, Large: scale 0 to 100 (0 no effect, 100 complete control)
Summary of the method: as §2

johnsongrass [9] = assay: Test C postemergence; assay type: in vivo, Sorghum halepense; conditions: for Johnsongrass plant response rating / Plant response rating, Johnsongrass: scale 0 to 100 (0 no effect, 100 complete control)
Summary of the method: as §2

oilseed rape = assay: Test C postemergence; assay type: in vivo, Brassica napus; conditions: for Oilseed Rape plant response rating: 31 g ai/ha; for Oilseed Rape plant response rating / Plant response rating, Oilseed Rape: scale 0 to 100 (0 no effect, 100 complete control)
Summary of the method: as §2

waterhemp = assay: Test C postemergence; assay type: in vivo, Amaranthus rudis; conditions: for Waterhemp plant response rating: 31 g ai/ha; for Waterhemp plant response rating / Plant response rating, Waterhemp: scale 0 to 100 (0 no effect, 100 complete control)
Summary of the method: as §2

velvetleaf = assay: Test C postemergence; assay type: in vivo, Abutilon theophrasti; conditions: for Velvetleaf plant response rating: 31 g ai/ha; for Velvetleaf plant response rating / Plant response rating, Velvetleaf: scale 0 to 100 (0 no effect, 100 complete control)
Summary of the method: as §2

[10] = 0 to 100 scale where 0 is no effect and 100 is complete control
[11] = 125 g ai/ha, scale 0 (no effect) to 100 (complete control)
[12] = 250 g ai/ha, scale 0 (no effect) to 100 (complete control)
[13] = 31 g ai/ha, postemergence, visual rating, 13 to 15 days
[14] = 125 g ai/ha, postemergence, visual rating
[15] = Postemergence, 62 g ai/ha, 13 to 15 days
[16] = postemergence, visual rating, 13 to 15 days
[17] = 125 g ai/ha, 0 to 100 scale where 0 is no effect and 100 is complete control
[18] = 0 to 100 scale, 0 no effect, 100 complete control, approx. 10 days
[19] = 16 g ai/ha, scale 0 to 100 (0 no effect, 100 complete control)
[20] = 62 g ai/ha, scale 0 (no effect) to 100 (complete control)
[21] = 16 g ai/ha, postemergence, visual rating, 13 to 15 days
[22] = 16 g ai/ha, postemergence, 0 is no effect, 100 is complete control

## N#Cc1cccc(Oc2ncc(Cl)cn2)c1-n1cc(I)cn1 [Compound 204]
Large (Lg) crabgrass [1]; 125 g ai/ha
  Crabgrass, Large plant response rating (0 to 100 scale): 100
Large (Lg) crabgrass [1]; [10]
  Crabgrass, Large plant response rating: 100
Pigweed [2]; 125 g ai/ha
  Pigweed plant response rating (0 to 100 scale): 100
Pigweed [2]; [10]
  Pigweed plant response rating: 100
Large (Lg) crabgrass [3]; 125 g ai/ha
  Crabgrass, Large plant response rating: 90
Large (Lg) crabgrass [3]; 500 g ai/ha
  Plant response rating, Crabgrass, Large: 100
Giant foxtail [4]; 125 g ai/ha
  Foxtail, Giant plant response rating: 80
Giant foxtail [4]; 500 g ai/ha
  Plant response rating, Foxtail, Giant: 100
Pigweed [5]
  Pigweed plant response rating: 100
  Plant response rating, Pigweed: 100
blackgrass; [11]
  Blackgrass plant response rating: 90
blackgrass; [12]
  Blackgrass plant response rating: 95
blackgrass; 62 g ai/ha
  Plant response rating, Blackgrass: 80
Giant foxtail [6]; [11]
  Foxtail, Giant plant response rating: 100
Giant foxtail [6]; [12]
  Foxtail, Giant plant response rating: 100
Giant foxtail [6]; 62 g ai/ha
  Plant response rating, Foxtail, Giant: 98
Johnsongrass [7]; [11]
  Johnsongrass plant response rating: 95
Johnsongrass [7]; [12]
  Johnsongrass plant response rating: 98
Johnsongrass [7]; 62 g ai/ha
  Plant response rating, Johnsongrass: 80
ragweed; [11]
  Ragweed plant response rating: 5
ragweed; [12]
  Ragweed plant response rating: 85
ragweed; 62 g ai/ha
  Plant response rating, Ragweed: 5
corn; [13]
  Corn plant response rating: 10
corn; [14]
  Plant response rating, Corn: 20
corn; 250 g ai/ha, postemergence
  Plant response rating (0 to 100), Corn: 20
corn; [15]
  Plant response rating, Corn: 20
Large (Lg) crabgrass [8]; [13]
  Crabgrass, Large plant response rating: 5
Large (Lg) crabgrass [8]; [14]
  Plant response rating, Crabgrass, Large: 15
Large (Lg) crabgrass [8]; 250 g ai/ha, postemergence
  Plant response rating (0 to 100), Crabgrass, Large: 65
Large (Lg) crabgrass [8]; [15]
  Plant response rating, Crabgrass, Large: 10
Johnsongrass [9]; [13]
  Johnsongrass plant response rating: 5
Johnsongrass [9]; [14]
  Plant response rating, Johnsongrass: 10
Johnsongrass [9]; 250 g ai/ha, postemergence
  Plant response rating (0 to 100), Johnsongrass: 30
Johnsongrass [9]; [15]
  Plant response rating, Johnsongrass: 5
Oilseed rape; [16]
  Oilseed Rape plant response rating: 40
Oilseed rape; [14]
  Plant response rating, Oilseed Rape: 85
Oilseed rape; 250 g ai/ha, postemergence
  Plant response rating (0 to 100), Oilseed Rape: 75
Oilseed rape; [15]
  Plant response rating, Oilseed Rape: 70
waterhemp; [16]
  Waterhemp plant response rating: 85
waterhemp; [14]
  Plant response rating, Waterhemp: 90
waterhemp; 250 g ai/ha, postemergence
  Plant response rating (0 to 100), Waterhemp: 95
waterhemp; [15]
  Plant response rating, Waterhemp: 90
velvetleaf; [16]
  Velvetleaf plant response rating: 35
velvetleaf; [14]
  Plant response rating, Velvetleaf: 60
velvetleaf; 250 g ai/ha, postemergence
  Plant response rating (0 to 100), Velvetleaf: 70
velvetleaf; [15]
  Plant response rating, Velvetleaf: 40

## N#Cc1cnn(-c2c(C#N)cccc2Oc2ncc(F)cn2)c1 [Compound 111]
Large (Lg) crabgrass [1]; [17]
  Plant response rating, Crabgrass, Large: 100
Large (Lg) crabgrass [1]; [18]
  Crabgrass, Large plant response rating: 100
Pigweed [2]; [17]
  Plant response rating, Pigweed: 100
Pigweed [2]; [18]
  Pigweed plant response rating: 100
Large (Lg) crabgrass [3]; 125 g ai/ha
  Plant response rating, Crabgrass, Large: 60
Large (Lg) crabgrass [3]; 500 g ai/ha
  Plant response rating, Crabgrass, Large: 90
Giant foxtail [4]; 125 g ai/ha
  Plant response rating, Foxtail, Giant: 80
Giant foxtail [4]; 500 g ai/ha
  Plant response rating, Foxtail, Giant: 90
Pigweed [5]
  Plant response rating, Pigweed: 100
blackgrass; [19]
  Blackgrass plant response rating: 20
blackgrass; [20]
  Blackgrass plant response rating: 40
blackgrass; [11]
  Blackgrass plant response rating: 90
blackgrass; 31 g ai/ha
  Plant response rating, Blackgrass: 10
Giant foxtail [6]; [19]
  Foxtail, Giant plant response rating: 15
Giant foxtail [6]; [20]
  Foxtail, Giant plant response rating: 100
Giant foxtail [6]; [11]
  Foxtail, Giant plant response rating: 100
Giant foxtail [6]; 31 g ai/ha
  Plant response rating, Foxtail, Giant: 100
Johnsongrass [7]; [19]
  Johnsongrass plant response rating: 0
Johnsongrass [7]; [20]
  Johnsongrass plant response rating: 25
Johnsongrass [7]; [11]
  Johnsongrass plant response rating: 80
Johnsongrass [7]; 31 g ai/ha
  Plant response rating, Johnsongrass: 5
ragweed; [19]
  Ragweed plant response rating: 10
ragweed; [20]
  Ragweed plant response rating: 100
ragweed; [11]
  Ragweed plant response rating: 100
ragweed; 31 g ai/ha
  Plant response rating, Ragweed: 50
corn; [21]
  Corn plant response rating: 5
corn; [14]
  Plant response rating, Corn: 15
corn; Postemergence, 62 g ai/ha
  Plant response rating, Corn: 10
Large (Lg) crabgrass [8]; [21]
  Crabgrass, Large plant response rating: 5
Large (Lg) crabgrass [8]; [14]
  Plant response rating, Crabgrass, Large: 35
Large (Lg) crabgrass [8]; Postemergence, 62 g ai/ha
  Plant response rating, Crabgrass, Large: 10
Johnsongrass [9]; [21]
  Johnsongrass plant response rating: 5
Johnsongrass [9]; [14]
  Plant response rating, Johnsongrass: 10
Johnsongrass [9]; Postemergence, 62 g ai/ha
  Plant response rating, Johnsongrass: 5
Oilseed rape; [14]
  Plant response rating, Oilseed Rape: 80
Oilseed rape; Postemergence, 62 g ai/ha
  Plant response rating, Oilseed Rape: 60
waterhemp; [14]
  Plant response rating, Waterhemp: 90
waterhemp; Postemergence, 62 g ai/ha
  Plant response rating, Waterhemp: 80
velvetleaf; [14]
  Plant response rating, Velvetleaf: 80
velvetleaf; Postemergence, 62 g ai/ha
  Plant response rating, Velvetleaf: 75

## N#Cc1cnn(-c2c(Oc3ncc(Cl)cn3)cccc2C(F)F)c1 [Compound 236]
Large (Lg) crabgrass [1]; 125 g ai/ha
  Crabgrass, Large plant response rating (0 to 100 scale): 100
Large (Lg) crabgrass [1]; [10]
  Crabgrass, Large plant response rating: 100
Pigweed [2]; 125 g ai/ha
  Pigweed plant response rating (0 to 100 scale): 100
Pigweed [2]; [10]
  Pigweed plant response rating: 100
Large (Lg) crabgrass [3]; 125 g ai/ha
  Crabgrass, Large plant response rating: 80
Large (Lg) crabgrass [3]; 500 g ai/ha
  Plant response rating, Crabgrass, Large: 100
Giant foxtail [4]; 125 g ai/ha
  Foxtail, Giant plant response rating: 90
Giant foxtail [4]; 500 g ai/ha
  Plant response rating, Foxtail, Giant: 100
Pigweed [5]
  Pigweed plant response rating: 100
  Plant response rating, Pigweed: 100
blackgrass; [19]
  Blackgrass plant response rating: 5
blackgrass; [11]
  Blackgrass plant response rating: 90
blackgrass; 62 g ai/ha
  Plant response rating, Blackgrass: 90
Giant foxtail [6]; [19]
  Foxtail, Giant plant response rating: 35
Giant foxtail [6]; [11]
  Foxtail, Giant plant response rating: 100
Giant foxtail [6]; 62 g ai/ha
  Plant response rating, Foxtail, Giant: 100
Johnsongrass [7]; [19]
  Johnsongrass plant response rating: 5
Johnsongrass [7]; [11]
  Johnsongrass plant response rating: 85
Johnsongrass [7]; 62 g ai/ha
  Plant response rating, Johnsongrass: 60
ragweed; [19]
  Ragweed plant response rating: 15
ragweed; [11]
  Ragweed plant response rating: 90
ragweed; 62 g ai/ha
  Plant response rating, Ragweed: 85
corn; [22]
  Plant response rating (0 to 100), Corn: 5
corn; [13]
  Corn plant response rating: 5
corn; [14]
  Plant response rating, Corn: 10
corn; [15]
  Plant response rating, Corn: 5
Large (Lg) crabgrass [8]; [22]
  Plant response rating (0 to 100), Crabgrass, Large: 5
Large (Lg) crabgrass [8]; [13]
  Crabgrass, Large plant response rating: 5
Large (Lg) crabgrass [8]; [14]
  Plant response rating, Crabgrass, Large: 5
Large (Lg) crabgrass [8]; [15]
  Plant response rating, Crabgrass, Large: 5
Johnsongrass [9]; [22]
  Plant response rating (0 to 100), Johnsongrass: 10
Johnsongrass [9]; [13]
  Johnsongrass plant response rating: 25
Johnsongrass [9]; [14]
  Plant response rating, Johnsongrass: 20
Johnsongrass [9]; [15]
  Plant response rating, Johnsongrass: 15
Oilseed rape; [22]
  Plant response rating (0 to 100), Oilseed Rape: 30
Oilseed rape; [16]
  Oilseed Rape plant response rating: 10
Oilseed rape; [14]
  Plant response rating, Oilseed Rape: 65
Oilseed rape; [15]
  Plant response rating, Oilseed Rape: 30
waterhemp; [22]
  Plant response rating (0 to 100), Waterhemp: 70
waterhemp; [16]
  Waterhemp plant response rating: 70
waterhemp; [14]
  Plant response rating, Waterhemp: 90
waterhemp; [15]
  Plant response rating, Waterhemp: 90
velvetleaf; [22]
  Plant response rating (0 to 100), Velvetleaf: 55
velvetleaf; [16]
  Velvetleaf plant response rating: 65
velvetleaf; [14]
  Plant response rating, Velvetleaf: 80
velvetleaf; [15]
  Plant response rating, Velvetleaf: 85
